4 molecules from patent publication US5545618A, “GLP-1 analogs useful for diabetes treatment” (priority 1993, dated 1996) can be followed below.

Read-outs that look alike come from different tables or passages of the source.

One data set deals with RIN 1046-38 cells. The procedure: An additional test for potency of the compounds of the invention measures their ability to stimulate cAMP production in RIN 1046-38 cells. This assay can be conducted as follows:
On day 1, 5×10^5 RIN 1046-38 cells (Drucker, D. J., et al., Proc Natl Acad Sci USA (1987) 84:3434-3438) are seeded into individual wells of 6-well dishes with 2.5 mL M199 culture medium. On day 4, cells are re-fed with fresh medium and on day 5 the assay is performed. […] Assays are only performed on cell passage ≤24.
At time -60 min, monolayers are washed twice with 2.5 mL PBS, and medium is changed to 1.0 mL of DMEM medium plus 4.5 g/l glucose and 0.1% BSA (assay medium). At 0 time, medium is aspirated and fresh assay medium, 1.0 mL, containing test compound is added. Test compound is added in 50 ul volume of PBS plus 0.1% BSA; controls are added in vehicle alone. Incubation is continued for 0 to 60 min.
At termination, conditioned medium and monolayer are harvested to measure both extra- and intracellular cAMP content. For extracellular measurement, medium is removed and centrifuged to remove any cellular debris. For intracellular determination, after medium removal, 1.0 mL of ice cold 95% ethanol is added to monolayer. Cells are collected by scraping, lysed by two cycles of quick freeze/thawing using liquid N2, and cell debris then removed by centrifugation. Aliquots (1/40th well content) of conditioned medium and ethanol cell extract are measured in duplicate for cAMP levels using an RIA kit by the acetylated protocol.
Insulin secretion can also be measured by the method described by Holst, J. J., et al. FEBS Letters (1987) 211:169-174 (supra). Also useful as an assay for insulinotropic effect is the measurement of stimulation of adenylate cyclase in the RIN 1046-38 cell line. Drucker, D. J. et al., Proc Natl Acad Sci USA (1987) 84:3434-3438 (supra).

Data set [1] in a line: degradation in plasma by RP-HPLC. Also: key: +: degradation was not observed; -: was complete after this time. It is filed as in vitro ADME. The conditions noted are these: incubation in plasma for 60 minutes.
The format of data set [2] is in vitro ADME. The procedure:
Polyclonal antisera were raised in New Zealand White rabbits against a synthetic peptide fragment corresponding to residues 24 to 37 of GLP-1(7-37) using the method of Mosjoy, S. et al., J Biol Chem (1986) 261:11880-11889. Initial immunizations were into the inguinal lymph nodes and used Freund's complete adjuvant. Two subcutaneous boosts were performed at 1 week intervals after the initial immunization and used Freund's incomplete adjuvant. For a single immunization or boost 100 μg peptide and 100 μg methylated BSA dissolved in 0.3 mL phosphate-buffered saline (PBS) were emulsified with 0.9 mL adjuvant. Bleeds (50 mL) began at week 6 after the initial immunization and continued at 1 month intervals thereafter. Repeat boosts were performed as above when titers dropped noticeably from the level of the previous bleed.

Turning to `CC[C@H](C)[C@H](NC(=O)[C@H](Cc1ccccc1)NC(=O)[C@H](CCC(=O)O)NC(=O)[C@H](CCCCN)NC(=O)[C@H](C)NC(=O)[C@H](C)NC(=O)[C@H](CCC(N)=O)NC(=O)CNC(=O)[C@H](CCC(=O)O)NC(=O)[C@H](CC(C)C)NC(=O)[C@H](Cc1ccc(O)cc1)NC(=O)[C@H](CO)NC(=O)[C@H](CO)NC(=O)[C@@H](NC(=O)[C@H](CC(=O)O)NC(=O)[C@H](CO)NC(=O)[C@@H](NC(=O)[C@H](Cc1ccccc1)NC(=O)[C@@H](NC(=O)CNC(=O)[C@@H](CC(=O)O)NC(=O)[C@H](C)NC(=O)[C@@H](N)Cc1c[nH]cn1)[C@@H](C)O)[C@@H](C)O)C(C)C)C(=O)N[C@@H](C)C(=O)N[C@@H](Cc1c[nH]c2ccccc12)C(=O)N[C@@H](CC(C)C)C(=O)N[C@H](C(=O)N[C@@H](CCCCN)C(=O)NCC(=O)N[C@@H](CCCNC(=N)N)C(=O)NCC(=O)O)C(C)C` [(D^.dagger.)^9 -GLP-1(7-37)], in the data set with RIN 1046-38 cells, the “ED50 nM Duplicate Assays (first value)” value is given as 0.90 nM and the “ED50 nM Duplicate Assays (second value)” value was 0.90 nM. Also, in data set [1], the “Resistance to Degradation” value is “-”.

GLP-1(7-37): in the data set with RIN 1046-38 cells (cAMP stimulation in RIN 1046-38 cells, first of duplicate assays), the “ED50 nM Duplicate Assays (first value)” value turned out to be 0.16 nM. Moreover, the “ED50 nM Duplicate Assays (second value)” value in the data set on RIN 1046-38 cells (cAMP stimulation in RIN 1046-38 cells, second of duplicate assays) was 0.25 nM. The “ability of recovered fragment to inhibit binding of radiolabeled GLP-1(7-37) to carboxy terminal-specific antibody” value in data set [2] is on record as “no diminution”.

As to `CC[C@H](C)[C@H](NC(=O)[C@H](Cc1ccccc1)NC(=O)[C@H](CCC(=O)O)NC(=O)[C@H](CCCCN)NC(=O)[C@H](C)NC(=O)[C@H](C)NC(=O)[C@H](CCC(N)=O)NC(=O)CNC(=O)[C@H](CCC(=O)O)NC(=O)[C@H](CC(C)C)NC(=O)[C@H](Cc1ccc(O)cc1)NC(=O)[C@H](CO)NC(=O)[C@H](CO)NC(=O)[C@@H](NC(=O)[C@H](CC(=O)O)NC(=O)[C@H](CO)NC(=O)[C@@H](NC(=O)[C@H](Cc1ccccc1)NC(=O)[C@@H](NC(=O)CNC(=O)[C@H](CCC(=O)O)NC(=O)[C@H](C)NC(=O)[C@H](Cc1c[nH]cn1)NC(C)=O)[C@@H](C)O)[C@@H](C)O)C(C)C)C(=O)N[C@@H](C)C(=O)N[C@@H](Cc1c[nH]c2ccccc12)C(=O)N[C@@H](CC(C)C)C(=O)N[C@H](C(=O)N[C@@H](CCCCN)C(=O)NCC(=O)N[C@@H](CCCNC(=N)N)C(=O)NCC(=O)O)C(C)C` [(N-acetyl-H)^7 -GLP-1(7-37)], the “Resistance to Degradation” value in data set [1] is reported as “+”.

Regarding `CC[C@H](C)[C@H](NC(=O)[C@H](Cc1ccccc1)NC(=O)[C@H](CCC(=O)O)NC(=O)[C@H](CCCCN)NC(=O)[C@H](C)NC(=O)[C@H](C)NC(=O)[C@H](CCC(N)=O)NC(=O)CNC(=O)[C@H](CCC(=O)O)NC(=O)[C@H](CC(C)C)NC(=O)[C@H](Cc1ccc(O)cc1)NC(=O)[C@H](CO)NC(=O)[C@H](CO)NC(=O)[C@@H](NC(=O)[C@H](CC(=O)O)NC(=O)[C@H](CO)NC(=O)[C@@H](NC(=O)[C@H](Cc1ccccc1)NC(=O)[C@@H](NC(=O)CNC(=O)[C@H](CCC(=O)O)NC(=O)[C@H](C)NC(=O)[C@@H](N)Cc1ccc(O)cc1)[C@@H](C)O)[C@@H](C)O)C(C)C)C(=O)N[C@@H](C)C(=O)N[C@@H](Cc1c[nH]c2ccccc12)C(=O)N[C@@H](CC(C)C)C(=O)N[C@H](C(=O)N[C@@H](CCCCN)C(=O)NCC(=O)N[C@@H](CCCNC(=N)N)C(=O)NCC(=O)O)C(C)C` [(Y)^7 -GLP-1(7-37)], the “Resistance to Degradation” value in data set [1] is recorded as “-”.
